Patent US20260001875A1, “AMINOPYRIMIDINYL DERIVATIVES FOR THE TREATMENT OF PARKINSON'S DISEASE” (UNIVERSITY OF DUNDEE, priority 2022, published 2026)

Assays:
Settings in all cases: Mus musculus
Rab10 pThr73 [1] = experiment: Rab10 Thr73 dephosphorylation (immunoblot) in LRRK2^G2019S MEFs; type: cell-based
Rab10 pThr73 [2] = experiment: as above; type: cell-based, mouse
Rab10 pThr73 [3] = experiment: Rab10 Thr73 dephosphorylation (immunoblot) in WT MEFs; type: cell-based, mouse
How it was run: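 Wild-type mouse embryonic fibroblasts in 6-well plates were treated with LRRK2 PROTACs, with two biological replicates per condition. Cells were washed in PBS and lysed on ice in buffer containing phosphatase and protease inhibitors plus 1% Triton X-100, then clarified at 15,000 g. Rab10 Thr73 phosphorylation was measured by quantitative immunoblotting of 15 to 20 μg protein on 4-12% Bis-Tris gels.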

[4] = 33 nM/4 h treatment, read-out: pRab10 inhibited in LRRK2^G2019S MEFs
[5] = 33 nM/24 h treatment, read-out: pRab10 inhibited in LRRK2^G2019S MEFs
[6] = 1 μM/4 h treatment, read-out: pRab10 inhibited in LRRK2^G2019S MEFs
[7] = 1 μM/24 h treatment, read-out: pRab10 inhibited in LRRK2^G2019S MEFs
[8] = 33 nM/4 h treatment, read-out: pRab10 inhibited in WT MEFs
[9] = 33 nM/24 h treatment, read-out: pRab10 inhibited in WT MEFs
[10] = 1 μM/4 h treatment, read-out: pRab10 inhibited in WT MEFs
[11] = 1 μM/24 h treatment, read-out: pRab10 inhibited in WT MEFs

| SMILES | inhibition at 0.033 µM (Rab10 pThr73 [1]; [4]) | inhibition at 0.033 µM (Rab10 pThr73 [1]; [5]) | inhibition at 1 µM (Rab10 pThr73 [2]; [6]) | inhibition at 1 µM (Rab10 pThr73 [2]; [7]) | inhibition at 0.033 µM (Rab10 pThr73 [3]; [8]) | inhibition at 0.033 µM (Rab10 pThr73 [3]; [9]) | inhibition at 1 µM (Rab10 pThr73 [3]; [10]) | inhibition at 1 µM (Rab10 pThr73 [3]; [11]) | inhibition at 0.033 µM (Rab10 pThr73 [1]; read-out: pRab10 inhibited in LRRK2^G2019S MEFs, 33 nM/4 h treatment) | inhibition at 0.033 µM (Rab10 pThr73 [1]; read-out: pRab10 inhibited in LRRK2^G2019S MEFs, 33 nM/24 h treatment) | inhibition at 1 µM (Rab10 pThr73 [2]; read-out: pRab10 inhibited in LRRK2^G2019S MEFs, 1 μM/4 h treatment) | inhibition at 1 µM (Rab10 pThr73 [2]; read-out: pRab10 inhibited in LRRK2^G2019S MEFs, 1 μM/24 h treatment) | inhibition at 0.033 µM (Rab10 pThr73 [3]; read-out: pRab10 inhibited in WT MEFs, 33 nM/4 h treatment) | inhibition at 0.033 µM (Rab10 pThr73 [3]; read-out: pRab10 inhibited in WT MEFs, 33 nM/24 h treatment) | inhibition at 1 µM (Rab10 pThr73 [3]; read-out: pRab10 inhibited in WT MEFs, 1 μM/4 h treatment) | inhibition at 1 µM (Rab10 pThr73 [3]; read-out: pRab10 inhibited in WT MEFs, 1 μM/24 h treatment) |
| --- | --- | --- | --- | --- | --- | --- | --- | --- | --- | --- | --- | --- | --- | --- | --- | --- |
| CNc1nc(Nc2ccc(C(=O)N3CCN(CCOCCOCCSC(C)(C)[C@H](NC(=O)C4(F)CC4)C(=O)N4C[C@H](O)C[C@H]4C(=O)NCc4ccc(-c5scnc5C)c(F)c4)CC3)cc2OC)ncc1Cl [XL01123, (2S,4R)-1-((R)-3-((2-(2-(2-(4-(4-f((5-chloro-4-(methylamino)pyrimidin-2-yl)amino)-3-methoxybenzoyl)piperazin-1-yl)ethoxyl)ethoxy)ethyl)thio)-2-(1-fluorocyclopropane-1-carboxamido)-3-methylbutanoyl)-N-(3-fluoro-4-(4-methylthiazol-5-yl)benzyl)-4-hydroxypyrrolidine-2-carboxamide] | 0 to 70% | 0 to 90% | 20 to 100% | 10 to 100% | 0 to 40% | 0 to 60% | 10 to 95% | 30 to 100% | – | – | – | – | – | – | – | – |
| CNc1nc(Nc2ccc(C(=O)N3CCN(CCOCCSC(C)(C)[C@H](NC(=O)C4(F)CC4)C(=O)N4C[C@H](O)C[C@H]4C(=O)NCc4ccc(-c5scnc5C)cc4)CC3)cc2OC)ncc1Cl [XL01131, (2S,4R)-1-((R)-3-((2-(2-(4-(4-((5-chloro-4-(methylamino)pyrimidin-2-yl)amino)-3-methoxybenzoyl)piperazin-1-yl)ethoxy)ethyl)thio)-2-(1-fluorocyclopropane-1-carboxamido)-3-methylbutanoyl)-4-hydroxy-N-(4-(4-methylthiazol-5-yl)benzyl)pyrrolidine-2-carboxamide] | 0 to 70% | 0 to 90% | 20 to 100% | 10 to 100% | 0 to 40% | 0 to 60% | 10 to 95% | 30 to 100% | – | – | – | – | – | – | – | – |
| CNc1nc(Nc2ccc(C(=O)N3CCN(C[C@H](C)SC(C)(C)[C@H](NC(=O)C4(F)CC4)C(=O)N4C[C@H](O)C[C@H]4C(=O)NCc4ccc(-c5scnc5C)cc4)CC3)cc2OC)ncc1Cl [XL01140, (2S,4R)-1-((R)-3-(((S)-1-(4-(4-((5-chloro-4-(methylamino)pyrimidin-2-yl)amino)-3-methoxybenzoyl)piperazin-1-yl)propan-2-yl)thio)-2-(1-fluorocyclopropane-1-carboxamido)-3-methylbutanoyl)-4-hydroxy-N-(4-(4-methylthiazol-5-yl)benzyl)pyrrolidine-2-carboxamide] | 0 to 70% | 0 to 90% | 20 to 100% | 10 to 100% | 0 to 40% | 0 to 60% | 10 to 95% | 30 to 100% | – | – | – | – | – | – | – | – |
| CNc1nc(Nc2ccc(OCCOCCOCCOCCSC(C)(C)[C@@H](NC(=O)C3(F)CC3)C(=O)N3C[C@H](O)C[C@H]3C(=O)NCc3ccc(-c4scnc4C)cc3)cc2OC)ncc1Cl [XL01145, (2S,4R)-1-((S)-1-(4-((5-chloro-4-(methylamino)pyrimidin-2-yl)amino)-3-methoxyphenoxy)-14-(1-fluorocyclopropane-1-carboxamido)-13,13-dimethyl-3,6,9-trioxa-12-thiapentadecan-15-oyl)-4-hydroxy-N-(4-(4-methylthiazol-5-yl)benzyl)pyrrolidine-2-carboxamide] | 0 to 70% | 0 to 90% | 20 to 100% | 10 to 100% | 0 to 40% | 0 to 60% | 10 to 95% | 30 to 100% | – | – | – | – | – | – | – | – |
| CNc1nc(Nc2ccc(OCCOCCCSC(C)(C)[C@@H](NC(=O)C3(F)CC3)C(=O)N3C[C@H](O)C[C@H]3C(=O)NCc3ccc(-c4scnc4C)cc3)cc2OC)ncc1Cl [XL01149, (2S,4R)-1-((S)-3-((3-(2-(4-((5-chloro-4-(methylamino)pyrimidin-2-yl)amino)-3-methoxyphenoxy)ethoxy)propyl)thio)-2-(1-fluorocyclopropane-1-carboxamido)-3-methylbutanoyl)-4-hydroxy-N-(4-(4-methylthiazol-5-yl)benzyl)pyrrolidine-2-carboxamide] | 0 to 70% | 0 to 90% | 20 to 100% | 10 to 100% | 0 to 40% | 0 to 60% | 10 to 95% | 30 to 100% | – | – | – | – | – | – | – | – |
| CNc1nc(Nc2ccc(OC[C@H]3CC[C@H](CSC(C)(C)C(NC(=O)C4(F)CC4)C(=O)N4C[C@H](O)C[C@H]4C(=O)NCc4ccc(-c5scnc5C)cc4)CC3)cc2OC)ncc1Cl (stereo partly drawn) [XL01168, (2S,4R)-1-((S)-3-((((1R,4S)-4-((4-((5-chloro-4-(methylamino)pyrimidin-2-yl)amino)-3-methoxyphenoxy)methyl)cyclohexyl)methyl)thio)-2-(1-fluorocyclopropane-1-carboxamido)-3-methylbutanoyl)-4-hydroxy-N-(4-(4-methylthiazol-5-yl)benzyl)pyrrolidine-2-carboxamide] | 0 to 70% | 0 to 90% | 20 to 100% | 10 to 100% | 0 to 40% | 0 to 60% | 10 to 95% | 30 to 100% | – | – | – | – | – | – | – | – |
| CNc1nc(Nc2ccc(C(=O)N3C[C@@H](C)N(C[C@H]4CC[C@H](CSC(C)(C)C(NC(=O)C5(F)CC5)C(=O)N5C[C@H](O)C[C@H]5C(=O)NCc5ccc(-c6scnc6C)cc5)CC4)[C@@H](C)C3)cc2OC)ncc1Cl (some centres unmarked) [XL02031] | 0 to 90% | 30 to 90% | 10 to 100% | 80 to 100% | 0 to 70% | 0 to 80% | 80 to 100% | 80 to 100% | – | – | – | – | – | – | – | – |
| CNc1nc(Nc2ccc(C(=O)N3CCN(C[C@H]4CC[C@@H](CSC(C)(C)[C@H](NC(=O)C5(F)CC5)C(=O)N5C[C@H](O)CC5C(=O)NCc5ccc(-c6scnc6C)cc5F)CC4)CC3)cc2OC)ncc1Cl (stereo partly drawn) [XL02058, (2S,4R)-1-((R)-3-((((1s,4S)-4-((4-(4-((5-chloro-4-(methylamino)pyrimidin-2-yl)amino)-3-methoxybenzoyl)piperazin-1-yl)methyl)cyclohexyl)methyl)thio)-2-(1-fluorocyclopropane-1-carboxamido)-3-methylbutanoyl)-N-(2-fluoro-4-(4-methylthiazol-5-yl)benzyl)-4-hydroxypyrrolidine-2-carboxamide] | 0 to 90% | 30 to 90% | 10 to 100% | 80 to 100% | 0 to 70% | 0 to 80% | 80 to 100% | 80 to 100% | – | – | – | – | – | – | – | – |
| CNc1nc(Nc2ccc(C(=O)N3CCN(C[C@@H]4CCC[C@H](CSC(C)(C)[C@H](NC(=O)C5(F)CC5)C(=O)N5C[C@H](O)C[C@H]5C(=O)NCc5ccc(-c6scnc6C)cc5)C4)CC3)cc2OC)ncc1Cl [XL02063, (2S,4R)-1-((R)-3-((((1S,3R)-3-((4-(4-((5-chloro-4-(methylamino)pyrimidin-2-yl)amino)-3-methoxybenzoyl)piperazin-1-yl)methyl)cyclohexyl)methyl)thio)-2-(1-fluorocyclopropane-1-carboxamido)-3-methylbutanoyl)-4-hydroxy-N-(4-(4-methylthiazol-5-yl)benzyl)pyrrolidine-2-carboxamide] | 0 to 90% | 30 to 90% | 10 to 100% | 80 to 100% | 0 to 70% | 0 to 80% | 80 to 100% | 80 to 100% | – | – | – | – | – | – | – | – |
| CNc1nc(Nc2ccc(C(=O)N3CCC4(CCN(CCCSC(C)(C)[C@H](NC(=O)C5(F)CC5)C(=O)N5C[C@H](O)C[C@H]5C(=O)NCc5ccc(-c6scnc6C)cc5)CC4)CC3)cc2OC)ncc1Cl [XL02067B, (2S,4R)-1-((R)-3-((3-(9-(4-((5-chloro-4-(methylamino)pyrimidin-2-yl)amino)-3-methoxybenzoyl)-3,9-diazaspiro[5.5]undecan-3-yl)propyl)thio)-2-(1-fluorocyclopropane-1-carboxamido)-3-methylbutanoyl)-4-hydroxy-N-(4-(4-methylthiazol-5-yl)benzyl)pyrrolidine-2-carboxamide] | – | – | – | – | – | – | – | – | 0 to 90% | 30 to 90% | 10 to 100% | 80 to 100% | 0 to 70% | 0 to 80% | 80 to 100% | 80 to 100% |
